In PubChem BioAssay (NCI):
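Cultured in 96-well plates, cells were exposed to test compound for 48 hours across five concentrations. GI50 is the concentration that inhibits growth by half. TGI denotes the concentration required for complete inhibition of growth.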

Assays:
Assay in all cases: NCI anticancer screen, dose series, 48 h
A498 renal = system: A498 renal
A549 NSCLC = system: A549 NSCLC
LOX IMVI melanoma = system: LOX IMVI melanoma
NCI-H226 lung = system: NCI-H226 lung
OVCAR-4 ovarian = system: OVCAR-4 ovarian
SK-MEL-28 melanoma = system: SK-MEL-28 melanoma
U251 CNS = system: U251 CNS
UACC-62 melanoma = system: UACC-62 melanoma
UO-31 renal = system: UO-31 renal
SNB-19 CNS = system: SNB-19 CNS

Structure (SMILES) | TGI (A498 renal) | TGI (A549 NSCLC) | TGI (LOX IMVI melanoma) | TGI (NCI-H226 lung) | TGI (OVCAR-4 ovarian) | TGI (SK-MEL-28 melanoma) | TGI (U251 CNS) | TGI (UACC-62 melanoma) | TGI (UO-31 renal) | TGI (SNB-19 CNS) | GI50 (A549 NSCLC) | GI50 (LOX IMVI melanoma) | GI50 (NCI-H226 lung) | GI50 (SK-MEL-28 melanoma) | GI50 (UACC-62 melanoma) | GI50 (UO-31 renal) | GI50 (OVCAR-4 ovarian) | GI50 (SNB-19 CNS) | GI50 (U251 CNS)
COc1cc2oc(-c3ccccc3)cc(=O)c2c(O)c1C | > 100 µM | > 100 µM | > 100 µM | > 100 µM | > 100 µM | > 100 µM | > 100 µM | > 100 µM | > 100 µM |  |  |  |  |  |  |  |  |  | 
O=C(O)c1ccc(C(O)(c2ccccc2)c2ccccc2)cc1 |  | > 100 µM | > 100 µM |  | > 100 µM | > 100 µM | > 100 µM | > 100 µM | > 100 µM | > 100 µM |  |  |  |  |  |  |  |  | 
COc1cccc(-c2cc(=O)c3cc(N4CCOCC4)ccc3[nH]2)c1 |  | > 100 µM |  |  |  |  |  |  | > 100 µM |  | 0.225 µM | 0.0261 µM | 0.0806 µM | 0.0248 µM | 0.041 µM | 0.0713 µM |  |  | 
N#CC1=C(N)NC(=S)NC12Nc1ccccc1S2 (stereo unspecified) |  | > 100 µM | 44.7 µM | > 100 µM | > 100 µM | 66.9 µM | 79.8 µM | 55.8 µM | > 100 µM | > 100 µM | 37.7 µM | 17 µM | 31.2 µM | 26.3 µM | 19.7 µM | 35.8 µM | 81.4 µM | 28.1 µM | 21.4 µM
Cc1ccc(S(=O)(=O)N2CCN(C=S)CC2)cc1 | > 100 µM | > 100 µM | > 100 µM |  |  | > 100 µM | > 100 µM | > 100 µM | > 100 µM | > 100 µM |  |  |  |  |  |  |  |  | 
O=C1C=CC(=C(c2ccccc2)c2ccc(O)cc2)C=C1 |  | 36.8 µM | 17.9 µM | 38 µM | 30.2 µM | 31.9 µM | 29.2 µM | 28.9 µM | 29.5 µM | 31.7 µM |  |  |  |  |  |  |  |  | 
O=C(Cc1nc2ccccc2o1)C(=O)Nc1cccc(Cl)c1 | > 100 µM | > 100 µM |  | > 100 µM | > 100 µM | > 100 µM | > 100 µM | > 100 µM | > 100 µM | > 100 µM |  |  |  |  |  |  |  |  | 
O=C1C(=C([O-])c2ccccc2)C(=O)c2ccccc21.O=C1C(=C([O-])c2ccccc2)C(=O)c2ccccc21.[Mn+2] |  | > 100 µM | > 100 µM | > 100 µM | > 100 µM | > 100 µM |  | > 100 µM | > 100 µM | > 100 µM | > 100 µM | > 100 µM | 32 µM | 93.8 µM | 5.48 µM | 43.9 µM | > 100 µM | 76.7 µM | 
C/C(=N\OCC(O)CNCCSCc1ccccc1)c1ccccc1Cl (stereo unspecified) | 31.9 µM | 45.6 µM | 36.5 µM | 35.4 µM |  | 37.5 µM |  | 34.4 µM | 32.4 µM | 39.7 µM |  |  |  |  |  |  |  |  | 
CCn1c2ccccc2c(=O)c2c(OC)ccc(OC)c21 | > 100 µM | > 100 µM | > 100 µM | > 100 µM | > 100 µM |  | > 100 µM | > 100 µM | > 89.9 µM | > 100 µM |  |  |  |  |  |  |  |  | 
CCCCCCn1c(SC)nc(COC(=O)NC)c1COC(=O)NC | 30.8 µM | 31.5 µM | > 100 µM | 33.3 µM | 21.4 µM | 32.4 µM |  | 28.2 µM | 31.3 µM | 29.8 µM |  |  |  |  |  |  |  |  | 
